# In US11931352B2, “Combination therapies for treating cancer” (UNIVERSITY OF VIRGINIA PATENT FOUNDATION, priority 2018, dated 2024):
# Columns and labels:
# [1] = relative to the methoxy compound; cited from earlier work
# [2] = test system: wild type lineage negative mouse bone marrow cells; test: MYC expression in normal mouse bone marrow cells; assay type: cell-based; conditions: 5 μM AI-10-49, 24 hrs
# Protocol: (§1) Murine bone marrow cells were isolated by crushing femur and tibia of the hind legs of mice. Wild type mouse bone marrow cells were cultured in StemSpan Serum-Free Expansion Medium (SFEM, Stemcell Technologies), 100 U/ml Penicillin and […] Streptomycin (Life Technologies) supplemented with 6 ng/ml murine recombinant IL3, 10 ng/ml murine recombinant IL6, and 50 ng/ml murine recombinant SCF. Cbfb^+/MYH11 and Nras^+/G120 leukemic bone marrow and spleen cells were cultured in StemSpan Serum-Free Expansion Medium (SFEM, Stemcell Technologies), 100 U/ml Penicillin and […] Streptomycin (Life Technologies) supplemented with 10 ng/ml murine recombinant IL3, and 50 ng/ml murine recombinant SCF.
# (§2) Quantitative RT-PCR Analysis. mRNA was prepared with a PureLink® RNA Mini Kit (Life Technologies) and cDNA synthesis was performed with a SuperScript III kit (Life Technologies), per the manufacturers' instructions. Quantitative PCR analysis was conducted on an Applied Biosystems StepOnePlus System with Power SYBR® Green PCR Master Mix (Applied Biosystems). Expression levels were determined with the ΔCt method and normalized to ([…] and/or GAPDH. Sequences of primers are provided in the Key Resource Table.
# H3K27ac = test: ChIP-seq for H3K27ac in ME-1 cells; assay type: cell-based, human; conditions: AI-10-49 1 μM, 6 hrs; DMSO 31,102
# Protocol: (§3) Chromatin Immunoprecipitation (ChIP). ME-1 cells were treated with DMSO or AI-10-49 (1 μM) for six hrs. Cross-linking of proteins to DNA was accomplished by the addition of 1% formaldehyde for 10 min to cultured cells at room temperature. After neutralization with glycine, cells were lysed in lysis buffer with protease inhibitors and samples were sonicated to an average DNA length of 200-400 bp with a bioruptor (Diagenode). After sonication, the chromatin was immunoprecipitated with 10 μg of antibody of interest at 4° C. overnight. Antibody bound complexes were isolated with Dynabeads (Life Technologies). DNA was purified using phenol-chloroform isoamyl-alcohol method. Immunoprecipitated DNA was analyzed by sequencing (explained below) or qPCR on a StepOnePlus System (Applied Biosystems) with Power SYBR® Green PCR Master Mix and calculated as % of input.
# (§4) Chromatin immunoprecipitation followed by sequencing (ChIP-seq). DNA concentration was quantified with a NanoDrop spectrophotometer (Thermo Scientific). DNA integrity was evaluated with a 2100 Bioanalyzer (Agilent Technologies). […] Libraries were quantified by qPCR, normalized and pooled before sequencing with single-end 50-bp reads on an Illumina HiSeq4000).
# (§5) ChIP-seq data analysis. ChIP-seq reads were aligned to the human genome (hg19) with Bowtie2 v 2.1.0 (Langmead and Salzberg, 2012) with the standard default settings. […]
# MYC [3] = test: MYC protein levels by immunoblot in ME-1 cells; assay type: cell-based, human; conditions: 0.1 μM and greater concentrations, 6 hrs
# Protocol: Immunoblotting. ME-1 cells were lysed in modified RIPA buffer (50 mM Tris pH7.5, 150 mM NaCl, 1% NP40, 0.25% sodium deoxycholate and 1 mM EDTA) with phosphatase inhibitor (Sigma) and protease inhibitors (Millipore) for 15 min in ice followed by centrifugation. Nuclear and cytoplasmic fractions were isolated using Subcellular Protein Fractionation Kit (Thermo Fisher Scientific) according to the manufacturer's instructions. Protein concentrations were determined with the Biorad Protein Assay (Biorad). Proteins were separated on precast 8-12% Mini Protean TGX gels at 60-80 V using the Mini Protean electrophoresis system and were blotted onto PVDF membrane at 100V for 90 min in a Mini Trans-Blot Cell. All antibodies were used as recommended by the manufacturer and mentioned in Key Resource Table. Relative band intensities were quantified using ImageJ software.
# [4] = test system: lineage negative mouse Cbfb+/MYH11 leukemic cells; test: MYC expression in mouse Cbfb+/MYH11 leukemic cells; assay type: cell-based; conditions: 5 μM AI-10-49, 24 hrs
# Protocol: as §1, §2
# RING1B = test: Time-course ChIP-qPCR for RING1B at E3 in ME-1 cells; assay type: cell-based, human; conditions: by 5 hr of AI-10-49 treatment
# Protocol: as §3, with “ME-1 cells were treated with DMSO or AI-10-49 (1 μM) for six hrs.” left out
# ME-1 cells [5] = test: RNA-sequencing expression analysis of AI-10-49 treated ME-1 cells; assay type: cell-based, human; conditions: AI-10-49 1 μM, 6 hrs
# Protocol: RNA Sequencing. The RNA for RNA-sequencing was prepared with a PureLink® RNA Mini Kit. RNA concentration was quantified with a NanoDrop spectrophotometer (Thermo Scientific). RNA integrity was evaluated with a 2100 Bioanalyzer with an RNA 6000 kit (Agilent Technologies). Libraries were prepared with a TruSeq RNA library preparation kit (Illumina). Libraries were quantified by qPCR, normalized and pooled before sequencing with paired-end 90-bp reads on an Illumina HiSeq2000 in triplicate.
# RNA-seq data analysis. Raw reads from RNA-seq experiment were assessed for their quality using fastqc, followed by alignment to the reference human genome (hg19) using tophat v 2.0.9, bowtie2/2.1.0 (Trapnell et al., 2009) with the default setting except the following parameters: -b2-very-sensitive-mate-inner-dist 160-mate-std-dev 80-no-coverage-search-transcriptome-index=hg19_knownGene_transcriptome_data. Differential gene expression analysis was performed by cufflinks v 2.2.0 (Trapnell et al., 2012).
# [6] = test system: human cord blood CD34+ cells; test: MYC expression in normal human CD34+ hematopoietic cells; assay type: cell-based; conditions: 5 μM AI-10-49, 24 hrs
# From the text: (§6) Primary Hematopoietic Cell Cultures. Human cord blood samples were collected from the UMASS Memorial Medical Center, and CD34^+ cells were isolated using the CD34 Microbead kit (Miltenyi Biotec). The use of the cord blood samples for research purposes was approved by the Ethics Committee of the University of Massachusetts Medical School. Human AML samples were received from Martin Peter Carroll (University of Pennsylvania) and Carsten Mueller-Tidow (University of Heidelberg, Germany). Hematopoietic CD34^+ cells were isolated from human AML bone marrow samples using the CD34 Microbead kit (Miltenyi Biotec). All patients gave written consent for use of their samples. […]
# as §2
# [7] = test system: human primary inv(16) leukemic CD34+ cells; test: MYC expression in human primary inv(16) AML cells; assay type: cell-based; conditions: 5 μM AI-10-49, 24 hrs
# From the text: as §6, §2
# [8] = test system: CBFβ-SMMHC-expressing (Nras/CM) leukemia cells; test: Leukemia transplantation study in mice (leukemia latency); assay type: in vivo, mouse; conditions: i.p. from day 5; AI-10-49 200 mg/kg/day for 10 days, JQ1 50 mg/kg/day for 21 days
# Protocol: Leukemia transplantation studies in mice. […] AI-10-49 was administered at 200 mg/kg/day from day 5 to day 14. […] Mice were sacrificed after visible characteristics of AML, including reduced motility and grooming activity, hunched back, and pale paws (anemia). Leukemic cells were extracted from spleen and analyzed at time of euthanasia as previously described (Kuo et al., 2006).
# Statistical Analysis. Analysis was performed using R, a system for statistical computation and graphics (Ihaka and Gentleman, 1996). For mouse leukemia survival analysis, the leukemia latency and P-values were estimated using Survival package in R. P-value between groups was calculated using log-rank test. Relative cell viability, measured as the proportion of viable cells, was first arcsine-transformed to homogenize the variance. […] One-way ANOVA was performed followed by predetermined contrasts for FIGS. 2A, 2B, 2C, 2D, 2E, 4D and 7C. Two-way ANOVA was performed followed by Tukey's honest significance test for FIG. 3C. To compare the response curves (FIGS. 3A & 3D), an indicator variable was created to distinguish the two-drug treatment and one of the single-drug treatments. Two-way ANOVA was performed to compare a single-drug treatment and the two-drug treatment.
# RUNX1 [9] = test: ChIP-qPCR for RUNX1 at MYC enhancers in ME-1 cells; assay type: cell-based, human
# Protocol: as §3, with “ME-1 cells were treated with DMSO or AI-10-49 (1 μM) for six hrs.” left out
# MYC [10] = test: MYC transcript levels by qRT-PCR in ME-1 cells; assay type: cell-based, human; conditions: for MYC transcript and protein levels: single agent treatment of ME-1 cells
# Protocol: as §2
# CBFβ = target: T1, CBFβ (Homo sapiens, UniProt Q13951); conditions: cited from earlier work
# T1 sequence (Q13951 1-182): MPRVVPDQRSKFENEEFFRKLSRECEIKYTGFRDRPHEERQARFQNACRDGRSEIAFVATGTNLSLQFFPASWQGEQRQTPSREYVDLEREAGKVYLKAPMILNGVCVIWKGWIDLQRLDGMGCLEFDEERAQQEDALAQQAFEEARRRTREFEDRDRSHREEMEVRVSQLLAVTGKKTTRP
# RUNX1 [11] = test: ChIP-seq for RUNX1 in ME-1 cells; assay type: cell-based, human; conditions: AI-10-49 1 μM, 6 hrs
# Protocol: as §3, §4, §5
# ME-1 cells [12] = test: Cell viability (MTT) dose response and synergy analysis in ME-1 cells; assay type: cell-based, human; conditions: ME-1 cells treated 72 hr, MTT assay
# Protocol: Cell Viability Assay. Cell viability was estimated using the MTT kit, CellTiter 96® AQueous One Solution (Promega, PA). 20,000 cells/well were seeded in triplicate into 96-well plates. After 24-72 hrs, 20 μl of MTT reagent was added to wells containing cells or medium (blank), and absorption at 490 nm was measured using SpectraMax M5 plate reader (Molecular Devices).
# The IC50 was estimated using the drc package in R with lower bound set to 0 (Ritz et al., 2015). CIs were calculated using the formula a/A+b/B. Synergisms, additive effect and antagonism of combine treatment assays are defined as CI<1, CI=1 and CI>1 respectively, utilizing the Chou-Talalay Method (Chou, 2010).
# [13] = test system: non-inv(16) AML cells (U937, K562, Jurkat, Kasumi-1 and THP-1); test: MYC transcript levels in non-inv(16) AML cell lines; assay type: cell-based; conditions: 1 μM AI-10-49, 6 hrs
# Protocol: as §2
# [14] = AI-10-49 versus DMSO, ME-1 cells
smiles,measurement,setting,value
"FC(F)(F)Oc1ccc2[nH]c(-c3ccccn3)nc2c1 [A-10-47, 2-(pyridin-2-yl)-5-(trifluoromethoxy)-1H-benzo[d]imidazole]",metabolic stability,[1],enhanced metabolic stability
FC(F)(F)Oc1ccc2[nH]c(-c3ccc(OCCOCCOc4ccc(-c5nc6cc(OC(F)(F)F)ccc6[nH]5)nc4)cn3)nc2c1 [AI-10-49],MYC expression,[2],not affected
same,H3K27ac positive peaks,H3K27ac,"24,157 peaks"
same,MYC protein levels depleted,MYC [3],approximately 20 fold
same,MYC expression,[4],reduced
same,RING1B occupancy at E3,RING1B,90%
same,E2F1 levels repressed (RNA-seq),ME-1 cells [5],3 fold
same,MYC levels repressed (RNA-seq),ME-1 cells [5],over 10 fold
same,MYC expression,[6],not affected
same,MYC expression,[7],reduced
same,median latency of leukemia,[8],39 days
same,RUNX1 peak increase at BDME-E3,RUNX1 [9]; [14],8 fold
same,RUNX1 peak increase at E5,RUNX1 [9]; [14],1.8 fold
same,RUNX1 peak increase at ME1,RUNX1 [9]; [14],5 fold
same,RUNX1 peak increase at ME2,RUNX1 [9]; [14],3 fold
same,RUNX1 occupancy at E3,"RUNX1 [9]; time course, by 5 hr of AI-10-49 treatment",90%
same,repression of MYC transcript levels,"MYC [10]; 1 uM AI-10-49, 6 hrs, ME-1 cells",10 fold
same,MYC transcript and protein levels,MYC [10],readily reduced
same,effect on CBFβ function,CBFβ,minimal effect
same,increase in RUNX1 binding to target regulatory elements,RUNX1 [11]; versus DMSO,7 fold
same,RUNX1 binding sites,RUNX1 [11]; DMSO 991,"6,652 sites"
same,LD50 range at 95% confidence intervals,ME-1 cells [12],0.398 to 0.537 mM
same,repression of MYC transcript levels,[13],not in non-inv(16) AML cell lines
"Cc1sc2c(c1C)C(c1ccc(Cl)cc1)=N[C@@H](CC(=O)OC(C)(C)C)c1nnc(C)n1-2 [JQ1, reference compound]",median latency of leukemia,[8],32 days
same,MYC transcript and protein levels,MYC [10],readily reduced
